Results on twelve compounds are retold here after patent publication US10351550B2, “Substituted quinazoline compounds and methods of use thereof” (Araxes Pharma LLC, priority 2015, dated 2019).

For this assay, the target named is T1, KRAS G12C 1-169, his-tagged protein, GDP-loaded (Homo sapiens, UniProt P01116, G12C).
T1 construct: KRAS G12C 1-169, his-tagged protein, GDP-loaded
In words: Biochemical assay: covalent binding (% modification) to KRAS G12C by mass spectrometry. On the procedure:
Test compounds were prepared as 10 mM stock solutions in DMSO (Fisher cat# BP-231-100). KRAS G12C 1-169, his-tagged protein, GDP-loaded was diluted to 2 μm in buffer (20 mM Hepes, 150 mM NaCl, 1 mM MgCl2). Compounds were tested for activity as follows:
Compounds were diluted to 50× final test concentration in DMSO in 96-well storage plates. Compound stock solutions were vortexed before use and observed carefully for any sign of precipitation. Dilutions were as follow: • 1. For 100 μM final compound concentration, compounds were diluted to 5000 μM (5 μl 10 mM compound stock+5 μl DMSO and mixed well by pipetting. • 2. For 30 μM final compound concentration, compounds were diluted to 1500 μM (3 μl 10 mM compound stock+17 μl DMSO) and mixed well by pipetting. • 3. For 10 μM final compound concentration, compounds were diluted to 500 μM (2 μl 10 mM compound stock+38 μl DMSO) and mixed well by pipetting. 49 μl of the stock protein solution was added to each well of a 96-well PCR plate (Fisher cat#1423027). 1 μl of the diluted 50× compounds were added to appropriate wells in the PCR plate using 12-channel pipettor. Reactions were mixed carefully and thoroughly by pipetting up/down with a 200·1 multi-channel pipettor. […] 5·1 of 2% formic acid (Fisher cat# A117) in DI H2O was then added to each well followed by mixing with a pipette. The plate was then resealed with aluminum seal and stored on dry ice until analyzed as described below.
The above described assays were analyzed by mass spectrometry according to one of the following two procedures:
The MS instrument is set to positive polarity, 2 GHz resolution, and low mass (1700) mode and allowed to equilibrate for 30 minutes. The instrument is then calibrated, switched to acquisition mode and the appropriate method loaded.
After another 30 minute equilibration time, a blank batch (i.e., buffer) is run to ensure equipment is operating properly. The samples are thawed at 37° C. for 10 minutes, briefly centrifuged, and transfer to the bench top. Wells A1 and H12 are spiked with 1 uL 500 uM internal standard peptide, and the plates centrifuged at 2000×g for 5 minutes. The method is then run and masses of each individual well recorded.
The masses (for which integration data is desired) for each well are pasted into the platemap and exported from the analysis. Masses for the internal standards are exported as well. The data at 50 ppm is extracted for the +19 charge state, and identity of well A1 is assigned using the internal standard spike and integrated. Peak data is exported as a TOF list and the above steps are repeated individually, for the +20, 21, 22, 23, 24, and 25 charge states.
The masses and peak intensities of KRAS G12C protein species were measured using a Dionex RSLCnano system (Thermo Scientific) connected to a Q Exactive Plus mass spectrometer (Thermo Scientific).
[…] of sample was each loaded onto a Aeris™ 3.6 μm WIDEPORE C4 200 Å, LC Column 50×2.1 mm column maintained at 40° C. at a flow rate of 600 μl min^1 with 20% Solvent A (0.1% formic acid in H2O) and 80% Solvent B (0.1% formic acid in acetonitrile). The liquid chromatography conditions were 20% solvent B for 1 min, 20% to 60% solvent B for 1.5 min, 60% to 90% solvent for 0.5 min, 90% solvent B for 0.2 min, 90% to 20% solvent B for 0.2 min, and then equilibrated for 1.6 min before the following sample injection. The flow rate was maintained at 600 μl min^1 throughout the sample analysis.
The mass spectrometer was operated in profile mode at a resolution of 17500, 5 microscans, using 50 msec max injection time and an AGC target of 1e6, and a full mass range from 800-1850 m/z was recorded. The HCD trapping gas was optimized for maximum sensitivity for intact proteins. The ionization method was electrospray ionization, which used a spray voltage of 4 kV, sheath gas flow set to 50 au, auxiliary gas flow set to 10 au and sweep gas flow set to 1 au. […]

Where [1] appears, read: binding activity determined at 4 hours.
Setting [2] is: binding activity determined at 6 hours.
[3] abbreviates: binding activity determined at 2 hours.

Molecules are shown by their SMILES. Marks after values point to notes of the source that are not given here.

Take `C=CC(=O)N1CCCC(n2cnc3c(F)c(-c4c(O)cccc4F)c(Cl)cc3c2=O)C1` (stereo not shown) [Compound 1, 3-(1-acryloylpiperidin-3-yl)-6-chloro-8-fluoro-7-(2-fluoro-6-hydroxyphenyl)quinazolin-4(3H)-one]: the Binding % entry under setting [1] was “++^† (++ indicates binding activity from 5% up to 50%)”.

Consider `C=CC(=O)NC1CC(n2cnc3c(F)c(-c4c(O)cccc4F)c(Cl)cc3c2=O)C1` (stereo not shown) [Compound 2, N-(3-(6-chloro-8-fluoro-7-(2-fluoro-6-hydroxyphenyl)-4-oxoquinazolin-3(4H)-yl)cyclobutyl)acrylamide], for which the Binding % result under setting [1] is “++^† (++ indicates binding activity from 5% up to 50%)”. The “covalently bind to KRAS G12C, extent (% of protein in the well covalently bound to test compound)” value (time and concentration not given) is listed as “greater than 30%”.

For `C=CC(=O)Nc1cnc2c(F)c(-c3c(O)cccc3F)c(Cl)cc2c1N1CCN(C(C)=O)CC1` [Compound 3, N-(4-(4-acetylpiperazin-1-yl)-6-chloro-8-fluoro-7-(2-fluoro-6-hydroxyphenyl)quinolin-3-yl)acrylamide], under setting [1], the Binding % result is recorded as “++^† (++ indicates binding activity from 5% up to 50%)”.

Turning to `C=CC(=O)N1CC(n2cnc3c(F)c(-c4c(O)cccc4F)c(Cl)cc3c2=O)C1` [Compound 4, 3-(1-acryloylazetidin-3-yl)-6-chloro-8-fluoro-7-(2-fluoro-6-hydroxyphenyl)quinazolin-4(3H)-one], the Binding % entry under setting [1] was “++^† (++ indicates binding activity from 5% up to 50%)”.

With `C=CC(=O)N1CC(n2cnc3cc(-c4c(O)cccc4F)ccc3c2=O)C1` [Compound 5, 3-(1-acryloylazetidin-3-yl)-7-(2-fluoro-6-hydroxyphenyl) quinazolin-4(3H)-one], the Binding % entry under setting [2] is given as “++^‡ (++ indicates binding activity from 5% up to 50%)”.

With `C=CC(=O)N1CC(n2cnc3c(F)c(-c4cc(O)ccc4Cl)c(Cl)cc3c2=O)C1` [Compound 6, 3-(1-acryloylazetidin-3-yl)-6-chloro-7-(2-chloro-5-hydroxyphenyl)-8-fluoroquinazolin-4(3H)-one], the Binding % result by setting is: under setting [3], “++; (++ indicates binding activity from 5% up to 50%)”; under setting [1], “+++^† (+++ indicates binding activity 50% or greater)”.

Take `C=CC(=O)N1CC(n2cnc3c(F)c(-c4cc(O)cc5ccccc45)c(Cl)cc3c2=O)C1` [Compound 7, 3-(1-acryloylazetidin-3-yl)-6-chloro-8-fluoro-7-(3-hydroxynaphthalen-1-yl)quinazolin-4(3H)-one]: the Binding % entry by setting is: under setting [3], “+++; (+++ indicates binding activity 50% or greater)”; under setting [2], “+++^‡ (+++ indicates binding activity 50% or greater)”.

Consider `C=CC(=O)N1CC(n2cnc3c(F)c(-c4c(C)ccc5cn[nH]c45)c(Cl)cc3c2=O)C1` [Compound 8, 3-(1-acryloylazetidin-3-yl)-6-chloro-8-fluoro-7-(6-methyl-1H-indazol-7-yl)quinazolin-4(3H)-one], for which the Binding % result under setting [2] is reported as “++^‡ (++ indicates binding activity from 5% up to 50%)”.

As for `C=CC(=O)N1CC(n2cnc3c(F)cc(-c4ccccc4O)cc3c2=O)C1` [Compound 9, 3-(1-acryloylazetidin-3-yl)-8-fluoro-6-(2-hydroxyphenyl) quinazolin-4(3H)-one], the Binding % entry under setting [2] is recorded as “+^‡ (+ indicates binding activity up to 5%)”.

Turning to `C=CC(=O)N1CC(n2cnc3c(Cl)c(-c4cc(O)cc5ccccc45)c(F)cc3c2=O)C1` [Compound 10, 3-(1-acryloylazetidin-3-yl)-8-chloro-6-fluoro-7-(3-hydroxynaphthalen-1-yl)quinazolin-4(3H)-one], the Binding % entry runs as follows: under setting [3], “+++; (+++ indicates binding activity 50% or greater)”; under setting [2], “+++^‡ (+++ indicates binding activity 50% or greater)”.

With `C=CC(=O)N1CC(n2cnc3c(Cl)c(-c4cc(O)cc5ccccc45)c(N)cc3c2=O)C1` [Compound 12, 3-(1-acryloylazetidin-3-yl)-6-amino-8-chloro-7-(3-hydroxynaphthalen-1-yl)quinazolin-4(3H)-one], the Binding % result under setting [3] is on record as “++ (++ indicates binding activity from 5% up to 50%)”.

Take `C=CC(=O)N1CC(n2cnc3c(Cl)c(-c4cc(O)cc5ccccc45)cc(O)c3c2=O)C1` [Compound 14, 3-(1-acryloylazetidin-3-yl)-8-chloro-5-hydroxy-7-(3-hydroxynaphthalen-1-yl)quinazolin-4(3H)-one]: the Binding % result under setting [3] is reported as “+++ (+++ indicates binding activity 50% or greater)”.
